# Read-outs that look alike come from different tables or passages of the source.
# What was measured:
# A549 (lung) = experiment: Anti-tumour activity, sulforhodamine B (SRB) colorimetric cell growth test; format: cell-based; conditions: 48 h exposure, read-out: GI50 (concentration at which the compound tested inhibits 50% of the cell growth in comparison with untreated cells)
# Description: (§1) The OVM derivatives were tested against a series of cell lines from tumours. Cell growth and viability were quantitatively determined with a colorimetric type test, using the reaction with sulforhodamine B (SRB), according to the technique described by Faircloth et al. (Journal of Tissue and Culture Methods 1988, 11, 201-205).
# (§2) 96-well microtiter plates are inoculated with cells (5×10^3 cells per well) in aliquots of 195 μl of medium, incubating them for 18 h, in medium without added compound, to allow the cells to adhere to the surface. Next, the compounds to be tested are added, in samples of 5 μl, in a concentration range of 10 to 10^−8 μg/ml, dissolved in DMSO/EtOH (0.2% in PS buffer). After 48 h exposure, the anti-tumour effect is measured using the SRB technique: the cells are fixed by adding 50 μl of cold trichloroacetic acid (50%) (w/v) and it is incubated for 60 min. at 4° C. The plates are washed with deionized water and dried. 100 μl of SRB solution (0.4% w/v in 1% acetic acid) are added to each well, and it is incubated for 10 min. at ambient temperature. The unbound SRB is eliminated, washing with 1% acetic acid. The plates are air dried and the bound colorant is dissolved with Tris buffer. The optical densities are read in an automatic dish spectrophotometer reader at a wavelength of 490 nm.
# HT29 (colon) = experiment: as above; format: cell-based; conditions: read-out: GI50 (concentration at which the compound tested inhibits 50% of the cell growth in comparison with untreated cells)
# Description: as §1, §2
# MDA-MB-231 (breast) = experiment: as above; format: cell-based; conditions: 48 h exposure, read-out: GI50 (concentration at which the compound tested inhibits 50% of the cell growth in comparison with untreated cells)
# Description: as §1, §2
# tumour cell lines = experiment: Anti-tumour activity against the series of tumour cell lines (SRB test); format: cell-based; conditions: tumour cell lines of Table 5, in words
# Description: as §1, §2
# [1] = spontaneous dehydration and oxidation; J. Am. Chem. Soc. 1999, 121, 1786-1794; cited from earlier work
Compound,GI50 (A549 (lung)) [µM],GI50 (HT29 (colon); 48 h exposure) [µM],GI50 (MDA-MB-231 (breast)) [µM],GI50 values (in words) (tumour cell lines),anti-tumour activity compared with OVM (tumour cell lines),GI50 (A549 (lung); Homo sapiens) [µM],"GI50 (HT29 (colon); Homo sapiens, HT-29, 48 h exposure) [µM]",GI50 (MDA-MB-231 (breast); Homo sapiens) [µM],stability [1]
"4a,12b-dehydro-UWM6 [formula IX]",0.77,1.85,0.65,submicromolar range,clearly greater activities than that of the OVM,–,–,–,–
5-hydroxy-rabelomycin [formula XII],7.62,12.4,13.3,–,–,–,–,–,–
"Cc1c(O)c2cc(O)c3c(=O)c4c(O)cccc4c(=O)c3c2c(=O)c1=O [OVM, Oviedomycin]",8.7,6.9,5.6,–,–,–,–,–,–
"C[C@]1(O)CC(=O)c2c(cc(O)c3c2C(=O)c2cccc(O)c2C3=O)C1 [formula VI, rabelomycin]",–,–,–,–,–,5.32,10.9,6.8,–
"Cc1cc(O)c2c3c(c(O)c(O)c2c1)C(=O)c1c(O)cccc1C3=O [formula VIII, 5-hydroxy-dehydro-rabelomycin]",6.24,8.03,2.56,–,–,–,–,–,–
"CC1=CC(=O)[C@@H]2c3cc4cccc(O)c4c(O)c3C(=O)C[C@]2(O)C1 [formula X, prejadomycin]",0.29,1.29,0.24,submicromolar range,clearly greater activities than that of the OVM,–,–,–,–
"C[C@]1(O)CC(=O)C2c3cc4cccc(O)c4c(O)c3C(=O)C[C@]2(O)C1 (stereo partly shown) [formula XI, UWM6]",> 100,> 100,24.8,–,–,–,–,–,unstable and spontaneously becomes rabelomycin
"C[C@]1(O)CC(=O)c2c(cc(O)c3c2C(=O)c2ccc(O)c(O)c2C3=O)C1 [formula XIII, 9-hydroxy-rabelomycin]",3.1,14.1,7.06,–,–,–,–,–,–
prejadomycin 2-carboxylate [formula VII],0.6,1.17,0.38,submicromolar range,clearly greater activities than that of the OVM,–,–,–,–
